{
  "source": "paper PMC5688156",
  "about": "“The natural product carolacton inhibits folate-dependent C1 metabolism by targeting FolD/MTHFD” (Nature Communications, 2017)",
  "key": {"[1]": {"target": "T1, hsMTHFD2 (Homo sapiens, UniProt P13995)", "T1 construct": "His-tag (vector pHis-TEV) (cleaved yes); made in house; host or cells: E. coli BL21 (DE3)", "T1 sequence (P13995 36-350)": "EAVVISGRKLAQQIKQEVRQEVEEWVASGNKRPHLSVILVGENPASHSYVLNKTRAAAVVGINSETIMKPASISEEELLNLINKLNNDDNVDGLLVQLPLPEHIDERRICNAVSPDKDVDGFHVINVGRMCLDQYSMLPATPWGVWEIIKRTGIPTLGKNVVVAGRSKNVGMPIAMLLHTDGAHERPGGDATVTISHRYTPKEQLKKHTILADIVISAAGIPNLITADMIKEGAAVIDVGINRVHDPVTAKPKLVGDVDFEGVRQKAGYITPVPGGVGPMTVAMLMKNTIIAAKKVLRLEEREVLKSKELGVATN", "assay": "hsMTHFD2 cyclohydrolase (CYH) enzyme assay", "format": "biochemical", "method": "(6R,S)-5,10-Methylene-5,6,7,8-tetrahydrofolic acid ((6R,S)-5,10-CH2-THF) calcium salt and (6R,S)-5,10-Methenyl-5,6,7,8-tetrahydrofolic acid ((6R,S)-5,10-CH=THF) chloride were purchased from Schircks Laboratories (Bauma, Switzerland) and used as substrates for FolD dehydrogenase and cyclohydrolase enzyme assays, respectively. Only the R-isomer, which accounts for 50% of (6R,S)-5,10-CH2-THF and (6R,S)-5,10-CH=THF, respectively, is used by the enzyme. (6R,S)-5,10-CH2-THF was dissolved in N2-spargeled basic buffer (50 mM Tris-HCl (pH 8.0), 100 mM β-mercaptoethanol) as described by Varshney et al.[25]. (6R,S)-5,10-CH=THF was dissolved in DMSO as a 100 mM stock solution.\nBecause FolD is a bifunctional enzyme, dehydrogenase and cyclohydrolase activities were determined for FolD enzyme kinetics, respectively. The dehydrogenase activity of FolD was assayed for its substrate 5,10-CH2-THF and cofactor NADP^+ (in the case of MTHFD2, NAD^+ was used as the cofactor) based on monitoring the formation of 5,10-CH=THF, while the cyclohydrolase activity of FolD was determined for its substrate 5,10-CH=THF by monitoring the hydrolysis of […]. The enzyme kinetics for the dehydrogenase activity of all FolDs except hsMTHFD1_DC were determined at 30 °C in 50 mM Tris-HCl (pH 7.5), 30 mM β-mercaptoethanol. The hsMTHFD1_DC dehydrogenase activity was measured in 25 mM MOPS (pH 7.3), 30 mM β-mercaptoethanol at 30 °C. […] To monitor the formation of 5,10-CH=THF, the absorbance of the reaction mixture was monitored at 350 nm in micro UV cuvettes (BRAND, Essex, Connecticut, USA). The concentration of 5,10-CH=THF produced in the reaction was determined using an extinction co-efficient of 0.0249 μM^−1 cm^−1. […] The consumption of 5,10-CH=THF was measured by recording the absorbance of the reactions at 355 nm using the TECAN Infinite 200 PRO equipped with a monochromator. […] The inhibition constants (K i) of carolacton on FolD were determined by measuring the apparent K m when adding certain amounts of carolacton to the enzyme reactions. […]"}, "[2]": {"system": "U-937", "assay": "Cytotoxicity screening, U-937 (alamar blue)", "format": "cell-based, human", "conditions": "for EC50: 5 d, alamar blue", "method": "(§1) Half maximal effective concentrations (EC50) on human cancer cell lines were determined as described elsewhere. Human cancer cell lines were maintained as recommended by the depositor (German Collection of Microorganisms and Cell Cultures, DSMZ) and were treated for 5 d with carolacton in serial dilution. The viability of adherent cell types, HCT-116 (ACC 581), KB-3.1 (ACC-158) and KB-V.1 (ACC-149) was assessed by the addition of MTT tetrazolium salt and absorbance measurement at 570 nm. Histiocytic lymphoma U-937 cells (ACC-5) were maintained in RPMI 1640 medium and transferred into folate-free medium prior to the assay. Cell viability was determined by measuring alamar blue fluorescence emission at 590 nm. The values were referenced and EC50 values were determined by sigmoidal curve fitting. The cell lines KB-3.1 and KB-V.1 are originally derived from HeLa, whereas the latter is an MDR subclone of KB-3.1. They were used to directly compare the activity of carolacton on an mdr1 overexpressing and a sensitive cell line."}, "[3]": {"system": "HCT-116", "assay": "Cytotoxicity screening, HCT-116 (MTT)", "format": "cell-based, human", "conditions": "for EC50: 5 d treatment, MTT", "method": "as §1"}},
  "data": [
    {"smiles": "CO[C@H](CC(=O)O)[C@@H](C)C(=O)[C@H](C)/C=C(\\C)[C@H]1OC(=O)[C@H](O)[C@H](O)/C=C/[C@H](C)CCC[C@@H]1C", "note": "[carolacton]", "values": [
      {"measurement": "IC50", "setting": "[1]; 5 nM enzyme, read-out: IC50, carolacton inhibition on CYH activity", "result": 0.0857, "unit": "µM"},
      {"measurement": "IC80", "setting": "[1]; 5 nM enzyme, read-out: IC80, carolacton inhibition on CYH activity", "result": 0.202, "unit": "µM"},
      {"measurement": "Ki", "setting": "[1]; vs 5,10-CH=THF, read-out: Ki (5,10-CH=THF), carolacton inhibition on CYH activity", "result": 0.0127, "unit": "µM"},
      {"measurement": "EC50", "setting": "[2]; Homo sapiens, U-937, 120 h, folate-depleted medium", "result": 42, "unit": "µM"},
      {"measurement": "EC50", "setting": "[2]; Homo sapiens, U-937, 120 h, normal culture medium (RPMI 1640)", "result": "> 100", "unit": "µM"},
      {"measurement": "Maximum inhibition", "setting": "[2]; folate-depleted medium", "result": "65–75%"},
      {"measurement": "EC50", "setting": "[2]; folate-depleted medium", "result": "41.7 ± 15.2", "unit": "µM"},
      {"measurement": "EC50", "setting": "[3]", "result": "24.6 ± 0.8", "unit": "µM"},
      {"measurement": "EC50", "setting": "[3]; Homo sapiens, HCT-116, 120 h", "result": 25, "unit": "µM"},
      {"measurement": "Maximum inhibition", "setting": "[3]; inhibition of cell growth, 5 d", "result": ">80", "unit": "%"}
    ]}
  ]
}
